Results published in patent publication US6709647B2, “Antimicrobial deodorant compositions” (Unilever Home & Personal Care USA, a division of Conopco, …, priority 2001, dated 2004).

What was measured:
[1] = test system: Staphylococcus epidermidis; experiment: Cell suspension kill test in MES buffer, quench, plate count; assay type: cell-based; conditions: 50 mM MES pH 6.5; for Bacterial no. (concentration of bacteria remaining after 60 minutes): Table 6, percarbonate; for Bacterial no. (concentration of bacteria remaining after 60 minutes) / Reduction in bacterial no.: S. epidermidis; for Reduction in bacterial no.: amounts in mM; for Bacterial no. After 60 mins. / Bacterial no. Immediate: S. epidermidis suspension, amounts in weight %; for Bacterial no. Immediate: sample removed immediately
Protocol: A cell suspension of Staphylococcus epidermidis in 50 mM MES buffer (2-[N-morpholino]ethanesulfonic acid, Sigma M5287) was prepared to an OD600 nm of 0.022 and equal portions were treated with the components indicated in Table 3, to give the weight percentages also indicated. Samples were removed immediately and after 60 minutes; said samples being decimally diluted in a quench solution (vide infra) and then plated onto a suitable culture medium. The plates were incubated at 37° C. for 48 hours, then read and the bacterial numbers calculated.
The quench solution used was a solution of:
in 37.5 mM phosphate buffer, at pH 7.9, containing 0.05% v/v Triton X-100 (iso-octyl phenoxy polyoxyethanol).
In this Table, the amounts indicated are milliMolar concentrations and the antimicrobial effect is expressed in terms of the reduction in bacterial numbers achieved.
In these Tables, the amounts indicated are milliMolar concentrations and the antimicrobial effect is expressed in terms of the concentration of bacteria remaining after 60 minutes.

Corynebacteria = experiment: Cell suspension kill test in MES buffer, quench, plate count (Corynebacteria); assay type: cell-based; conditions: amounts in mM; for Bacterial no. After 60 mins.: 50 mM MES pH 6.5, after 60 minutes; for Bacterial no. Immediate: 50 mM MES pH 6.5, sample removed immediately
Protocol: A cell suspension of Staphylococcus epidermidis in 50 mM MES buffer (2-[N-morpholino]ethanesulfonic acid, Sigma M5287) was prepared to an OD600 nm of 0.022 and equal portions were treated with the components indicated in Table 3, to give the weight percentages also indicated. […] The plates were incubated at 37° C. for 48 hours, then read and the bacterial numbers calculated. The quench solution used was a solution of: in 37.5 mM phosphate buffer, at pH 7.9, containing 0.05% v/v Triton X-100 (iso-octyl phenoxy polyoxyethanol). An analogous experiment to that performed with Example 3, with the modification of using Corynebacteria rather than S. epidermidis, was performed with the components indicated in Table 5. In this Table, the amounts indicated are milliMolar concentrations and the effect is expressed as in Table 3.

## O=C([O-])[O-].O=C([O-])[O-].OO.OO.OO.[Na+].[Na+].[Na+].[Na+] [O, Percarbonate]
[1]
  Bacterial no. (concentration of bacteria remaining after 60 minutes): 6.39 Log10cfu/ml

## O.O=BO[O-].[Na+] [Example G, Perborate.H2O]
[1]
  Reduction in bacterial no.: <2.59 Log10cfu/ml

## Perborate.4 H2O [Example H]
[1]
  Reduction in bacterial no.: <2.59 Log10cfu/ml

## O=C(O)c1ccccn1 [J, Picolinic acid]
Corynebacteria
  Bacterial no. After 60 mins.: 6.0 Log10cfu/ml
  Bacterial no. Immediate: 6.1 Log10cfu/ml

## O=C(O)c1ccccn1 [Example F, Picolinic acid]
[1]
  Reduction in bacterial no.: <2.59 Log10cfu/ml

## O=C(O)c1ccccn1 [D, Picolinic acid]
[1]
  Bacterial no. After 60 mins.: 6.50 Log10cfu/ml
  Bacterial no. Immediate: 6.60 Log10cfu/ml

## OO [K, Hydrogen peroxide]
Corynebacteria
  Bacterial no. After 60 mins.: 4.6 Log10cfu/ml
  Bacterial no. Immediate: 6.1 Log10cfu/ml

## O=C(O)CN(CCN(CC(=O)O)CC(=O)O)CCN(CC(=O)O)CC(=O)O [L, Diethylenetriaminapentaacetic acid]
Corynebacteria
  Bacterial no. After 60 mins.: 5.9 Log10cfu/ml
  Bacterial no. Immediate: 6.0 Log10cfu/ml

## O=C(CCCCCN1C(=O)c2ccccc2C1=O)OO [Example E, phthalimidoperoxy hexanoic acid]
[1]
  Bacterial no. After 60 mins.: 6.50 Log10cfu/ml
  Bacterial no. Immediate: 6.47 Log10cfu/ml

## O=C([O-])[O-].O=C([O-])[O-].OO.OO.OO.[Na+].[Na+].[Na+].[Na+] [N, Percarbonate]
[1]
  Bacterial no. (concentration of bacteria remaining after 60 minutes): 6.13 Log10cfu/ml
